Measurements from patent US10105367B2, “Therapeutic thiophene-, furan-, and pyridine-fused azolopyrimidin-5-(6h)-ones” (Dart Neuroscience (Cayman) Ltd., priority 2012, dated 2018).

Biological target: human PDE1B (Homo sapiens (Human), UniProt Q01064)
Assay: PDE1B inhibitory assay (IMAP TR-FRET)
Conditions: 200 nM FAM-cAMP, Calmodulin, CaCl2; for PDE1B pIC50: negative log of half-maximal molar inhibitory concentration; for IC50: PDE1B pIC50, negative log of half-maximal molar inhibitory concentration
Experimental: PDE1B inhibition was determined by an IMAP TR-FRET assay.
After a brief centrifugation, the plates were incubated for 30 minutes at room temperature. The assay was terminated by adding 5 μL IMAP binding reagent/Tb complex (Molecular Devices, Sunnyvale, Calif.) to each well.
Plates were incubated 1 hour at room temperature and read on a Viewlux multimode plate reader (Perkin Elmer). The instrument was set to excite using the DUG11 filter and measure using 490/10 nm and 520/10 nm filters. Ratios of acceptor and donor were then calculated.
For IC50 calculations, the values of % efficacy versus a series of compound concentrations were then plotted using non-linear regression analysis of sigmoidal dose-response curves generated with the equation Y=B+(T−B)/1+10((Log EC50−X)×Hill Slope), where Y=percent activity, B=minimum percent efficacy, T=maximum percent efficacy, X=logarithm of compound and Hill Slope=slope factor or Hill coefficient. The IC50 value was determined by the concentration causing a half-maximal percent efficacy.

Row | SMILES | PDE1B pIC50 | IC50
1 | COC[C@@H]1CCCN1Cc1sc2c(c1C)c1ncnn1c(=O)n2Cc1ccc(OC)cc1 [Example 58] | >7 | –
2 | CCOc1ccc(Cn2c(=O)n3ncnc3c3c4c(sc32)COCC4)cc1 [Example 97] | – | 1000 to 10000 nM
3 | COc1ccc(Cn2c(=O)n3ncnc3c3c4c(sc32)N(CC2CCOCC2)CCC4)cc1 [Example 148] | >7 | –
4 | C[C@@H]1CN(Cc2cnc3c(c2)c2ncnn2c(=O)n3Cc2ccc(F)c(F)c2)C[C@H](C)O1 [Example 302] | – | 100 to 1000 nM
5 | O=c1n(Cc2ccccc2)c2sccc2c2ncnn12 [Example 24] | – | 1000 to 10000 nM
6 | C[C@@H]1CN(Cc2cnc3c(c2)c2ncnn2c(=O)n3Cc2ccc(F)c(Cl)c2)C[C@H](C)O1 [Example 294] | – | 100 to 1000 nM
7 | COCOCc1cnc2c(c1)c1ncnn1c(=O)n2Cc1ccc(OC)cc1 [Example 215] | – | 100 to 1000 nM
8 | COc1ccc(Cn2c(=O)n3ncnc3c3cc(CN4CC5CC4CO5)sc32)cc1 (stereo not shown) [Example 37] | >7 | –
9 | COc1ccc(Cn2c(=O)n3ncnc3c3c(C)c(CN4CCN(C(C)C)CC4)sc32)cc1 [Example 64] | >7 | –
10 | C=Cc1cnc2c(c1)c1ncnn1c(=O)n2Cc1ccc(OC)cc1 [Example 214, 6-(4-Methoxybenzyl)-9-vinylpyrido[3,2-e][1,2,4]triazolo[1,5-c]pyrimidin-5(6H)-one] | – | 100 to 1000 nM
11 | COc1ccc(Cn2c(=O)n3ncnc3c3ccc(CNc4ccccc4)nc32)cc1 [Example 263] | – | 100 to 1000 nM
12 | COc1c(F)cc(Cn2c(=O)n3ncnc3c3cc(CN4C[C@@H](C)O[C@@H](C)C4)cnc32)cc1F [Example 291] | – | 100 to 1000 nM
13 | C[C@@H]1CN(Cc2cnc3c(c2)c2ncnn2c(=O)n3Cc2cc(F)cc(F)c2)C[C@H](C)O1 [Example 285] | – | 1000 to 10000 nM
14 | COc1ccc(Cn2c(=O)n3ncnc3c3c4c(sc32)N(Cc2ccc(Cl)cc2)CCC4)cc1OC [Example 153] | – | 1000 to 10000 nM
15 | COc1ccc(Cn2c(=O)n3ncnc3c3ccc(CNCC4(C)COC4)nc32)cc1 [Example 258] | – | 1000 to 10000 nM
16 | COc1ccc(Cn2c(=O)n3ncnc3c3cc(CN4CC(F)(F)OC(F)(F)C4)cnc32)cc1 [Example 226] | – | 100 to 1000 nM
17 | COc1ccc(Cn2c(=O)n3ncnc3c3c(C)c(CN4CCN5CCC[C@H]5C4)sc32)cc1 [Example 75] | >7 | –
18 | COc1ccc(Cn2c(=O)n3ncnc3c3nc(N(C)C4CCN(C)CC4)cnc32)cc1 [Example 195] | – | 1000 to 10000 nM
19 | COc1ccc(Cn2c(=O)n3ncnc3c3nc(Br)cnc32)cc1 [Example 188] | – | 100 to 1000 nM
20 | COc1ccc(Cn2c(=O)n3ncnc3c3cc(CN4CC5CC4CO5)cnc32)cc1 (stereo not shown) [Example 218, 9-(2-Oxa-5-azabicyclo[2.2.1]heptan-5-ylmethyl)-6-(4-methoxybenzyl)pyrido[3,2-e][1,2,4]triazolo[1,5-c]pyrimidin-5(6H)-one] | – | 100 to 1000 nM
21 | COc1ccc(Cn2c(=O)n3ncnc3c3cc(CN4C[C@@H](C)O[C@@H](C)C4)cnc32)c(F)c1F [Example 292] | – | 100 to 1000 nM
22 | COc1ccc(Cn2c(=O)n3ncnc3c3c4c(sc32)CN(CC2(C)COC2)CC4)cc1 [Example 111] | >7 | –
23 | COc1ccc(Cn2c(=O)n3ncnc3c3ncc(CN4CCOCC4)cc32)cc1 [Example 241] | – | 1000 to 10000 nM
24 | COc1ccc(Cn2c(=O)n3ncnc3c3c4c(sc32)NCCC4)cc1OC [Example 100] | – | 1000 to 10000 nM

Row | SMILES | PDE1B pIC50 | IC50
25 | COc1ccc(Cn2c(=O)n3ncnc3c3c4c(sc32)CN(Cc2ncccn2)CC4)cc1 [Example 116] | >7 | –
26 | COc1ccc(Cn2c(=O)n3ncnc3c3cc(CCN)cnc32)cc1 [Example 211, 9-(2-Aminoethyl)-6-(4-methoxybenzyl)pyrido[3,2-e][1,2,4]triazolo[1,5-c]pyrimidin-5(6H)-one] | – | 1000 to 10000 nM
27 | COc1ccc(Cn2c(=O)n3ncnc3c3c4c(sc32)COCC4)cc1F [Example 95] | – | 100 to 1000 nM
28 | COc1ccc(Cn2c(=O)n3ncnc3c3c4c(sc32)COCC4)cc1 [Example 90] | >7 | –
29 | COCCN(Cc1cnc2c(c1)c1ncnn1c(=O)n2Cc1ccc(OC)cc1)C(C)C [Example 239] | – | 100 to 1000 nM
30 | COc1ccc(Cn2c(=O)n3ncnc3c3c4c(sc32)N(C(=O)C2CCOC2)CCC4)cc1 (stereo not shown) [Example 175] | >7 | –
31 | COc1ccc(Cn2c(=O)n3ncnc3c3cc(CN4C[C@@H](C)O[C@@H](C)C4)cnc32)c(F)c1 [Example 277] | >7 | –
32 | COc1ccc(Cn2c(=O)n3ncnc3c3c(C)c(CN(C)C4CC4)sc32)cc1 [Example 46] | >7 | –
33 | Cc1ccccc1Cn1c(=O)n2ncnc2c2cc(CN3C[C@@H](C)O[C@@H](C)C3)cnc21 [Example 283] | – | 1000 to 10000 nM
34 | COc1ccc(Cn2c(=O)n3ncnc3c3c4c(sc32)CN(Cc2ccccn2)CC4)c(F)c1 [Example 139] | >7 | –
35 | COc1ccc(Cn2c(=O)n3ncnc3c3ccc(CN4CCOCC4)nc32)cc1 [Example 256, 6-(4-Methoxybenzyl)-8-(morpholinomethyl)pyrido[3,2-e][1,2,4]triazolo[1,5-c]pyrimidin-5(6H)-one] | – | 1000 to 10000 nM
36 | COc1ccc(Cn2c(=O)n3ncnc3c3c(CN4C[C@@H](C)O[C@@H](C)C4)csc32)cc1 [Example 78, 9-(((2S,6R)-2,6-Dimethylmorpholino)methyl)-6-(4-methoxybenzyl)thieno[3,2-e][1,2,4]triazolo[1,5-c]pyrimidin-5(6H)-one] | – | 100 to 1000 nM
37 | COc1ccc(Cn2c(=O)n3ncnc3c3ncc(CN4CCCCC4)cc32)cc1 [Example 242] | – | 1000 to 10000 nM
38 | COc1ccc(Cn2c(=O)n3ncnc3c3cc(N4CCC(N(C)C)C4)cnc32)cc1 (stereo not shown) [Example 198] | – | 100 to 1000 nM
39 | COc1ccc(Cn2c(=O)n3ncnc3c3c4c(sc32)CN(CC2CCCOC2)CC4)cc1 (stereo not shown) [Example 134] | >7 | –
40 | COc1ccc(Cn2c(=O)n3ncnc3c3c4c(sc32)CN(C2CS(=O)(=O)C2)CC4)cc1 [Example 124] | – | 100 to 1000 nM
41 | COc1ccc(Cn2c(=O)n3ncnc3c3c4c(sc32)CN(Cc2ncccn2)CCC4)cc1 [Example 145] | >7 | –
42 | COc1ccc(Cn2c(=O)n3ncnc3c3cc(CN4CCOC(C)C4)cnc32)cc1 (stereo not shown) [Example 229] | >7 | –
43 | O=c1n(Cc2ccc(Cl)cc2)c2ncc(CN3CCCCC3)cc2c2ncnn12 [Example 209] | – | 1000 to 10000 nM
44 | CC(C)CCc1cc2c(s1)n(Cc1ccccc1)c(=O)n1ncnc21 [Example 25] | – | 100 to 1000 nM
45 | C[C@@H]1CN(Cc2cnc3c(c2)c2ncnn2c(=O)n3Cc2cc(F)cc(Cl)c2)C[C@H](C)O1 [Example 299] | – | 1000 to 10000 nM
46 | COc1ccc(Cn2c(=O)n3ncnc3c3c4c(sc32)CN(CC2CCC(=O)O2)CC4)cc1 (stereo not shown) [Example 126] | >7 | –
47 | COc1ccc(Cn2c(=O)n3ncnc3c3ccc(CNCc4ccccc4)nc32)cc1 [Example 262] | – | 100 to 1000 nM
48 | COc1ccc(Cn2c(=O)n3ncnc3c3cc(N[C@H]4CCCC[C@@H]4N)cnc32)cc1 [Example 194] | – | 1000 to 10000 nM

Row | SMILES | PDE1B pIC50 | IC50
49 | COc1ccc(Cn2c(=O)n3ncnc3c3c4c(sc32)CN(CC2CCOCC2)CC4(F)F)c(F)c1 [Example 156] | >7 | –
50 | O=c1n(Cc2ccccc2Cl)c2sc(Cc3ccccc3)cc2c2ncnn12 [Example 8] | – | 100 to 1000 nM
51 | COc1ccc(Cn2c(=O)n3ncnc3c3c4c(sc32)N(Cc2cccc(Cl)c2)CCC4)cc1OC [Example 155] | – | 1000 to 10000 nM
52 | C[C@@H]1CN(Cc2cnc3c(c2)c2ncnn2c(=O)n3Cc2cccc(I)c2)C[C@H](C)O1 [Example 284] | – | 100 to 1000 nM
53 | COc1ccc(Cn2c(=O)n3ncnc3c3cc(C(C)N4C[C@@H](C)O[C@@H](C)C4)cnc32)cc1 (stereo partly drawn) [Example 266, 9-(1-((2S,6R)-2,6-Dimethylmorpholino)ethyl)-6-(4-methoxybenzyl)pyrido[3,2-e][1,2,4]triazolo[1,5-c]pyrimidin-5(6H)-one] | >7 | –
54 | COc1ccc(Cn2c(=O)n3ncnc3c3ncc(CN4CCSCC4)cc32)cc1 [Example 243] | – | 1000 to 10000 nM
55 | COc1ccc(Cn2c(=O)n3ncnc3c3cc(CN4CCOC(C)(C)C4)sc32)cc1 [Example 36] | >7 | –
56 | COc1ccc(Cn2c(=O)n3ncnc3c3cc(-c4c(C)noc4C)sc32)cc1 [Example 42] | – | 100 to 1000 nM
57 | CC(C)CCc1cc2c(s1)n(Cc1ccc(Cl)cc1)c(=O)n1ncnc21 [Example 23] | – | 100 to 1000 nM
58 | C[C@@H]1CN(Cc2cnc3c(c2)c2ncnn2c(=O)n3Cc2ccc(-n3cccn3)cc2)C[C@H](C)O1 [Example 289] | <5 | –
59 | O=c1n(Cc2ccc(Cl)cc2F)c2sc3c(c2c2ncnn12)CCN(Cc1ncccn1)C3 [Example 132] | >7 | –
60 | Cc1csc2c1c1ncnn1c(=O)n2Cc1ccccc1Cl [Example 10] | – | 1000 to 10000 nM
61 | COc1ccc(Cn2c(=O)n3ncnc3c3cc(CCNC(=O)OCc4ccccc4)cnc32)cc1 [Example 204, Benzyl 2-(6-(4-Methoxybenzyl)-5-oxo-5,6-dihydropyrido[3,2-e][1,2,4]triazolo[1,5-c]pyrimidin-9-yl)ethylcarbamate] | – | 100 to 1000 nM
62 | Cc1cc(Cn2c(=O)n3ncnc3c3cc(CN4C[C@@H](C)O[C@@H](C)C4)cnc32)ccc1F [Example 274] | – | 100 to 1000 nM
63 | COc1ccc(Cn2c(=O)n3ncnc3c3ccc(CN4C[C@@H](C)O[C@@H](C)C4)nc32)cc1 [Example 257] | – | 100 to 1000 nM
64 | C[C@@H]1CN(Cc2cnc3c(c2)c2ncnn2c(=O)n3Cc2ccc(Cl)c(Cl)c2)C[C@H](C)O1 [Example 295] | – | 100 to 1000 nM
65 | COc1ccc(Cn2c(=O)n3ncnc3c3c4c(sc32)CN(S(C)(=O)=O)CC4)cc1 [Example 162] | >7 | –
66 | COc1ccc(Cn2c(=O)n3ncnc3c3c4c(sc32)N(C(=O)c2ccccc2)CCC4)cc1OC [Example 176] | – | 1000 to 10000 nM
67 | COc1ccc(Cn2c(=O)n3ncnc3c3cc(CN4CCN(C)CC4)cnc32)cc1 [Example 221] | – | 100 to 1000 nM
68 | COc1ccc(Cn2c(=O)n3ncnc3c3cc(-c4ccc(OC)nc4)cnc32)cc1 [Example 190] | – | 100 to 1000 nM
69 | O=c1n(Cc2ccc(-c3ccccc3)cc2)c2sc3c(c2c2ncnn12)CCCC3 [Example 86] | – | 1000 to 10000 nM
70 | COc1ccc(Cn2c(=O)n3ncnc3c3cc(N4CCC(N(C)C)CC4)cnc32)cc1 [Example 199] | – | 100 to 1000 nM
